Results on one molecule are retold here after patent publication US9206236B2, “Peptides for treating cancer” (Gene Signal International SA, priority 2010, dated 2015).

“Also recorded” adds a separate entry of the source. Where a SMILES comes first, the peptide text is derived from it. [ ]: non-standard residue; d: D form. pY = N[C@@H](Cc1ccc(OP(=O)(O)O)cc1)C(=O)O

In series [1] the test system is human microvascular endothelial cells (HMEC). Put plainly: In vitro angiogenesis assay (Matrigel tube formation). Conditions: 500 μg/ml final concentration of peptide, images at 18 h. Format: cell-based. As for the experimental part:
Angiogenesis of human microvascular endothelial cells (HMEC) was induced in vitro using a Matrigel assay described by Al-Mahmood et al (2009, JPET, 2009; 58:933). This method is based on the differentiation of endothelial cells to form capillary structures on a Matrigel Matrix. Matrigel is prepared the Engelbreth-Holm-Swarm (EHS) mouse tumor, which represents a complex mixture of basement membrane proteins including type IV collagen, entactin, proteo-heparan sulfate and other growth factors.
Briefly, 250 μl of Matrigel were transferred to each well of a 24-well culture plate and incubated at 37° C. for 30 min to allow for the matrix solution to solidify. HMEC grown in complete growth medium EGM-2MV were harvested by trypsin, suspended in the same growth medium and 500 μl containing 70 000 cells were added on top of the solidified Matrigel in each well and in the presence or absence of peptide. Cells were maintained in a humidified atmosphere air containing 5% CO2 at 37° C. for 18-24 hrs. Endothelial tube formation was observed and photographed under an inverted light microscope.
The designed tyrosine phosphorylated and non phosphorylated peptides were tested for their influence onto the in vitro angiogenesis. The results of the in vitro angiogenesis assay were presented in FIG. 1, using HMEC and 500 μg/ml final concentration of each peptide.

Series [2] concerns the target T1, recruitment of the regulatory subunit (p85) of the enzyme PI-3K by IRS-1 (Homo sapiens, UniProt P27986).
T1 construct: endogenous in cells; host or cells: human microvascular endothelial cells (HMEC)
Put plainly: Recruitment of p85 of PI-3K by IRS-1 (IRS-1 immunoprecipitation, anti-p85 immunoblot) in HMEC. Format: cell-based. Conditions: final concentration of peptide 500 μg/ml. On the procedure:
(§1) Human EC grown in EGM-2MV (80% confluence) were incubated with the peptides of the invention or vehicle for the indicated time, washed three times in cold PBS and directly lysed in 2 ml of ice-cold lysis buffer (10 mM Tris pH 7.5, 150 mM NaCl, 1 mM PMSF, 0.5 μg/ml leupeptin, 1 μg/ml pepstatin A, and 1 μg/ml aprotinin) by incubation for 30 min at 4° C. Cell lysate were spun at […] for 10 min, insoluble materials were discarded, and protein contents measured by Bradford assay of supernatants were adjusted. Cell lysate (1 ml) was precleared with 25 μl of protein G-plus agarose beads (Santa Cruz) for 30 min, and proteins were then immunoprecipitated by adding 2 μg of the indicated antibody and incubated for 1 hr. The immunocomplex was pulled down with protein G-plus agarose beads and the beads were washed three times with lysis buffer. The immunoprecipitates were separated by NuPAGE® 4-12% Bis-Tris gel electrophoresis under reducing conditions, transferred to PVDF membrane (Novex System, Invitrogen), and the membrane was blocked with 5% (w/v) non-fat milk in TBS containing 0.1% v/v Tween-20 for 1 hr.
As it is widely admitted that the tyrosine phosphorylation of IRS-1 leads to its association with the regulatory subunit (p85) of the enzyme PI-3K, and this event lead to important increases in the enzymatic activity of this later, we have investigated the influence of the tyrosine phosphorylated and non phosphorylated peptides onto the recruitment of the regulatory subunit (p85) of the enzyme PI-3K by IRS-1. For that, human microvascular endothelial cells (HMEC) were incubated with the tyrosine phosphorylated and non phosphorylated peptides (final concentration of peptide 500 μg/ml) followed by cells lysis and immuoprecipitation of the protein IRS-1. The immunoprecipitates were then resolved in SDS-PAGE, proteins were transferred to membranes, and the membranes were immunoblotted with an anti-p85 PI3K monoclonal antibody.

A further series deals with mTOR. Put plainly: mTOR status in HMEC after incubation with peptides (anti-mTor antibody Ser2448). It is filed as cell-based, human. As for the experimental part:
as §1
The status of mTOR in the HMEC following incubation with peptides GS-0 and GS-1 was investigated.

The next series concerns NCI-H460 tumors. The series can be described thus: NCI-H460 tumor xenograft in nude mice, tumor volume (Example 3). It is filed as in vivo. As for the experimental part: H460 cell line has cytology compatible with human Non-Small Cell Lung Cancer (NSCL). Cells were grown in MEM medium containing 10% FCS at 37° C., 5% CO2 humidified atmosphere. The absence of mycoplasms was confirmed by using the PCR Mycoplasma Detection kit (Takara). All experiments were reviewed by the Genopole's institutional animal care and use committee and were performed in accordance with institutional guidelines for animal care. Female BALB/c nu/nu mice (n=30) were used at 5-6 weeks of age. The animals were housed in laminar air-flow cabinets under pathogen-free conditions with a 12 h light/12 h dark schedule, and fed autoclaved standard chow and water ad libitum. The NCI-H460 human NSCL cell line was obtained from American Type Culture Collection (ATCC) were grown in RPMI medium 1640 supplemented with 1 μM sodium pyruvate. Tumor cells (10^7 cells in 200 μl of HBSS) were injected subcutaneously into the right flanks of mice. After engraftment, tumor volume was measured by Vernier callipers, and calculated as described in Balsam A et al. (Balsari A et al. (2004) Eur J Cancer 40: 1275-1281). At tumor volume about 150 mm^3, animals were randomized, and separated into five groups of five animals. Control mice (group 1) were intraperitoneally injected with vehicle (10% DMSO in buffer saline) every day. GS-0 was dissolved in vehicle and intraperitoneally injected (group 2) every day (12 injections). GS-2 was dissolved in vehicle and intraperitoneally injected (group 3) every day (12 injections). Tumor volume and body weight were measured every other day over the treatment period (12 days). GS-2 as well as the control peptide GS-0 were solubilized in DMSO and the resulting solutions were diluted 10 times with phosphate buffer saline (PBS) to obtain a concentration of 1 mg of peptide/ml of 10% DMSO in PBS. At this concentration, all peptides were soluble in 10% DMSO.

Series [3] is described as follows: Body weight and toxicity of mice bearing NCI-H460 tumors (Example 3). It is filed as in vivo. On the procedure: All experiments were reviewed by the Genopole's institutional animal care and use committee and were performed in accordance with institutional guidelines for animal care. Female BALB/c nu/nu mice (n=30) were used at 5-6 weeks of age. The animals were housed in laminar air-flow cabinets under pathogen-free conditions with a 12 h light/12 h dark schedule, and fed autoclaved standard chow and water ad libitum. […] Tumor cells (10^7 cells in 200 μl of HBSS) were injected subcutaneously into the right flanks of mice. […] At tumor volume about 150 mm^3, animals were randomized, and separated into five groups of five animals. Control mice (group 1) were intraperitoneally injected with vehicle (10% DMSO in buffer saline) every day. GS-0 was dissolved in vehicle and intraperitoneally injected (group 2) every day (12 injections). GS-2 was dissolved in vehicle and intraperitoneally injected (group 3) every day (12 injections). Tumor volume and body weight were measured every other day over the treatment period (12 days).

The nature of series [4]: Solubility of peptides in 10% DMSO in PBS. Format: physicochemical. Conditions: 1 mg of peptide/ml of 10% DMSO in PBS. On the procedure: GS-1 as well as the control peptide GS-0 were solubilized in DMSO and the resulting solutions were diluted 10 times with phosphate buffer saline (PBS) to obtain a concentration of 1 mg of peptide/ml of 10% DMSO in PBS. At this concentration, all peptides were soluble in 10% DMSO.
GS-2 as well as the control peptide GS-0 were solubilized in DMSO and the resulting solutions were diluted 10 times with phosphate buffer saline (PBS) to obtain a concentration of 1 mg of peptide/ml of 10% DMSO in PBS. At this concentration, all peptides were soluble in 10% DMSO.

T1 sequence (P27986 whole entry): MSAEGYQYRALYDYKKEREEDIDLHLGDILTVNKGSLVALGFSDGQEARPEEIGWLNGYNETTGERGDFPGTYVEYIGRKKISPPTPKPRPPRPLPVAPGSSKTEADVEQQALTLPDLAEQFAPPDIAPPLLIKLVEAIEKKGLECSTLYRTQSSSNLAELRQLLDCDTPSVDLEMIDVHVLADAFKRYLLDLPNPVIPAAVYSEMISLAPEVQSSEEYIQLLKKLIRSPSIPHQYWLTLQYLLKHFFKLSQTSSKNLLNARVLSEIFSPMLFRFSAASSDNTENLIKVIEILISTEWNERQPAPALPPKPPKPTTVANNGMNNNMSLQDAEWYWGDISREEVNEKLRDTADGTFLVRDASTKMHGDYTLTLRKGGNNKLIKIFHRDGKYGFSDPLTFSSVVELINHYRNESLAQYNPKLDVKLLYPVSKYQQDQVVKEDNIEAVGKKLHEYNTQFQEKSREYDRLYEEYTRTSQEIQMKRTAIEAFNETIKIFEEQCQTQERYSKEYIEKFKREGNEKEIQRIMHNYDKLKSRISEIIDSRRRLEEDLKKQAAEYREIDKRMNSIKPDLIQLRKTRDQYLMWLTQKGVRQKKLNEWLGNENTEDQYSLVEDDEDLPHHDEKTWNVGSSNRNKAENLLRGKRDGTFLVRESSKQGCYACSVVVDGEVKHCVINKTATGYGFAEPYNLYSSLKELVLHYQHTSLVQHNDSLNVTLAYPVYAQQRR

For `CSCC[C@H](NC(=O)[C@H](CC(N)=O)NC(=O)[C@H](CCSC)NC(=O)[C@H](Cc1ccc(OP(=O)(O)O)cc1)NC(=O)[C@H](CCC(=O)O)NC(C)=O)C(=O)N[C@@H](CC(=O)O)C(N)=O` [GS-2, EpYMNMD] (Ac-E[pY]MNMD-NH2), the “in vitro angiogenesis-inhibitory activity” value in series [1] is “have in vitro angiogenesis-inhibitory activities”. In addition, in series [2], the “influence onto the recruitment of the regulatory subunit (p85) of PI3K by IRS-1” value is “moderate inhibitory effects”. In the series with mTOR, the “amounts of mTOR in HMEC relative to vehicle” value was “much less amounts of mTOR”. Besides, the “influence on the in vivo growth of the tumor NCI-H460 (in words)” value in the series on NCI-H460 tumors (8 mg/kg i.p. daily for 12 days) is “highly significant and potent influence; also recorded: statistically significant and potent anti-tumoral activity”. For the same molecule, in the series on NCI-H460 tumors (8 mg/kg i.p. daily for 12 days, n=5), the “mean tumor volume at the end of treatment” value amounted to 297.28 ± 142.67 mm^3. The molecule also had a Mean tumor volume D1 in the series on NCI-H460 tumors (Table 4, 8 mg/kg i.p. daily, day 1) of 124 mm³. This molecule also returned a Mean tumor volume D3 in the series with NCI-H460 tumors (Table 4, 8 mg/kg i.p. daily, day 3) of 129 mm³. The same molecule gave a Mean tumor volume D5 in the series with NCI-H460 tumors (Table 4, 8 mg/kg i.p. daily, day 5) of 163 mm³. In the series with NCI-H460 tumors (Table 4, 8 mg/kg i.p. daily, day 7), this molecule registered a Mean tumor volume D7 of 174 mm³. In addition, the Mean tumor volume D9 in the series with NCI-H460 tumors (Table 4, 8 mg/kg i.p. daily, day 9) is 254 mm³. The Mean tumor volume D11 in the series on NCI-H460 tumors (Table 4, 8 mg/kg i.p. daily, day 11) turned out to be 297 mm³. In the series on NCI-H460 tumors (Table 4, 8 mg/kg i.p. daily, day 13), this molecule returned a Mean tumor volume D13 of 297 mm³. Also, the “toxicity and body weight loss during treatment” value in series [3] (8 mg/kg intraperitoneally every day, 12 injections) is “No toxicity and no body weight loss”. Further, the “Mean body weight D1” value in series [3] (Table 3, 8 mg/kg i.p. daily, day 1, in g) worked out at 22.59. The “Mean body weight D3” value in series [3] (Table 3, 8 mg/kg i.p. daily, day 3, in g) stood at 22.32. Further, the “Mean body weight D5” value in series [3] (Table 3, 8 mg/kg i.p. daily, day 5, in g) was found to be 22.78. For the same molecule, in series [3] (Table 3, 8 mg/kg i.p. daily, day 7, in g), the “Mean body weight D7” value is on record as 23.10. Besides, in series [3] (Table 3, 8 mg/kg i.p. daily, day 9, in g), the “Mean body weight D9” value was 23.00. For the same molecule, the “Mean body weight D11” value in series [3] (Table 3, 8 mg/kg i.p. daily, day 11, in g) was 23.51. Further, the “Mean body weight D13” value in series [3] (Table 3, 8 mg/kg i.p. daily, day 13, in g) stood at 23.05. Moreover, in series [4], the “solubility in 10% DMSO” value is “soluble”.
